# Results from ChEMBL document CHEMBL3045370, “Design and synthesis of 6-alkyoxyl[1,2,4]triazolo[1,5-a]quinazoline derivatives with anticonvulsant activity” (Med Chem Res, 2012).
# Calls of active or inactive are those of the source. No cut-off for these calls is given here.
# Key:
# [1] = tested on: Mus musculus; test: Anticonvulsant activity in Mus musculus Kunming (mouse) assessed as protection against maximal electroshock-induced seizure at 100 mg/kg, ip administered 30 min prior to testing; type: functional, organism-based; set-up: dose 100 mg/kg
# [2] = Neurotoxicity against ip dosed Mus musculus Kunming (mouse) assessed as inability to maintain equilibrium on rod measured for 1 min by rota rod test; type: toxicity, organism-based; details: in vivo
# [3] = tested on: Mus musculus; test: Anticonvulsant activity in ip dosed Mus musculus Kunming (mouse) assessed as protection against maximal electroshock-induced seizure administered 30 min prior to testing; type: functional
# [4] = Protective index, ratio of TD50 for neurotoxicity to ED50 for anticonvulsant activity in Mus musculus Kunming (mouse); type: toxicity, organism-based; details: in vivo, read-out: Ratio TD50/ED50
Structure (SMILES),Activity [1],also measured
Fc1ccc(COc2cccc3c2cnc2ncnn23)cc1,inactive,–
CCCCCOc1cccc2c1cnc1ncnn12,Active,–
Brc1ccccc1COc1cccc2c1cnc1ncnn12,inactive,–
Cc1ccc(COc2cccc3c2cnc2ncnn23)cc1,inactive,–
Fc1cccc(COc2cccc3c2cnc2ncnn23)c1,inactive,–
CCCCCCCCOc1cccc2c1cnc1ncnn12,inactive,–
CCCCCCCCCCOc1cccc2c1cnc1ncnn12,inactive,–
Clc1ccc(COc2cccc3c2cnc2ncnn23)c(Cl)c1,inactive,–
N#Cc1ccccc1COc1cccc2c1cnc1ncnn12,inactive,–
NC(=O)N1c2ccccc2C=Cc2ccccc21 [CARBAMAZEPINE],–,TD50 at 1 min [2]: 76.1 mg/kg; ED50 [3]: 11.8 mg/kg
CCCCCCCOc1cccc2c1cnc1ncnn12,inactive,–
Fc1ccccc1COc1cccc2c1cnc1ncnn12,inactive,–
Clc1cccc(COc2cccc3c2cnc2ncnn23)c1,inactive,–
CCCCCCOc1cccc2c1cnc1ncnn12,inactive,–
N#Cc1ccc(COc2cccc3c2cnc2ncnn23)cc1,inactive,–
c1ccc(COc2cccc3c2cnc2ncnn23)cc1,Active,selectivity ratio [4]: 9; TD50 at 1 min [2]: 710 mg/kg; ED50 [3]: 78.9 mg/kg
CCCCOc1cccc2c1cnc1ncnn12,inactive,–
Clc1ccccc1COc1cccc2c1cnc1ncnn12,inactive,–
Clc1ccc(COc2cccc3c2cnc2ncnn23)cc1,inactive,–
COc1ccc(COc2cccc3c2cnc2ncnn23)cc1,inactive,–
